Experimental data reported in patent US20140377259A1, “METHODS FOR INHIBITING HIV-1 REPLICATION INVOLVING THE ADMINISTRATION OF AN ANTI-CCR5 RECEPTOR MONOCLONAL ANTIBODY AND SMALL MOLECULE CCR5 RECEPTOR ANTAGONIST” (CytoDyn Inc., priority 2005, published 2014).
Where two headings read alike, the source gives them in different places.

Experiments:
[1] = system: HIV-1JR-FL envelope-mediated membrane fusion; format: cell-based
Excerpt: HIV-1 envelope-mediated membrane fusion was examined using a fluorescence resonance energy transfer (RET) assay (Litwin et al. 1996) with modifications. Briefly, HeLa cells that stably express HIV-1JR-FL gp120/gp41 (Litwin et al. 1996) and CEM.NKR-CCR5 cells (NIH AIDS Research and Reference Reagent Program, (Spenlehauer et al. 2001; Trkola et al. 1999)) were labeled separately overnight with fluorescein octadecyl ester (F18; Molecular Probes, Eugene, Oreg.) and rhodamine octadecyl ester (R18; Molecular Probes), respectively. […] The CD4 mAb Leu3a was used as a control inhibitor, and percent inhibition was calculated as: (RET in the absence of inhibitor−RET in the presence of inhibitor)/(RET in the absence of inhibitor−RET in the presence of Leu3a)×100.
(§1) Experimental design and data analysis were based on the combination index (CI) method (Chou et al. 1991; Chou et al. 1984). Compounds were tested individually and in combination at a fixed molar ratio over a range of serial dilutions. […] The mutually exclusive CI formula was used for combinations of CCR5 inhibitors, while the mutually non-exclusive formula was utilized for combinations of inhibitors to distinct targets (Chou et al. 1991). Each test was conducted 4-12 times. Synergy, additivity and antagonism are indicated by CI<1, CI=1 and CI>1, respectively.
Twenty-two synergy comparisons (11 compounds×2 CI values) were made based on data generated in the membrane fusion assay, resulting in a corrected P value of 0.0023.

CCR5 [2] = target: T1, CCR5 (Homo sapiens, UniProt P51681); test: Competition binding: inhibition of 3H-UK-427,857 binding to CEM.NKR-CCR5 cells
T1 construct: host or cells: CEM.NKR (human T cell leukemia line), transduced with CCR5
Excerpt: Cells were washed and then analyzed for radioactivity by scintillation counting.
The cells were washed in PBSA and lysed with 0.5N HCl prior to scintillation counting using a Wallac 1410 instrument.

[3] = system: reporter virus pseudotyped with HIV-1SF162 envelope; format: cell-based; conditions: 2nd inhibitor PRO 140, equimolar, 1:10 PRO 140 to zidovudine or nevirapine
Experimental: (§2) Cultures were incubated for 72 h at 37° C. in DMEM containing 10% fetal bovine serum, 1 mg/mL puromycin, 0.3 mg/mL geneticin, antibiotics, and 0.5% DMSO. Luciferase activity (relative light units or RLU) was measured using BrightGlo reagent (Promega, Madison, Wis.) according to the manufacturer's instructions. Percent inhibition was calculated as: (1−RLU in the presence of inhibitor/RLU in the absence of inhibitor)×100.
as §1

[4] = system: AD101- and SCH-D-resistant HIV-1 variants; conditions: primary CD4+ T-cells; cited from earlier work
CCR5 [5] = target: T1, CCR5; test: Competition binding: inhibition of PRO 140-PE binding to CEM.NKR-CCR5 cells (flow cytometry); conditions: for Inhibition of PRO 140-PE binding: unlabeled inhibitor pre-incubated 30 min, 5 nM PRO 140-PE
Experimental: Inhibition was assessed on the basis of both MFI (A) and percent cells gated (B).
Azide was added to block CCR5 internalization during the assay.

[6] = system: HIV-1 Env-mediated fusion (HeLa-EnvJRFL with CEM NKR-CCR5 cells); test: HIV-1 RET cell-cell fusion assay (Part II, combination testing); format: cell-based; conditions: Drug 1 SCH-D with Drug 2 TAK-779, molar ratio 1:1
Experimental: Briefly, fluorescein octadecyl ester (F18; Molecular Probes, Eugene, Oreg.; 5 mg/ml in ethanol), was diluted 1:800 in DMEM labeling medium (DMEM; Invitrogen, Carlsbad, Calif.) with 10% fetal bovine serum (FBS; HyClone, Logan, Utah) and adjusted to an A506 of 0.34±10%. Octadecyl rhodamine B chloride (R18; Molecular Probes; 10 mg/ml in ethanol) was diluted 1:2050 in labeling medium and adjusted to an A565 of 0.52±10%. Both dyes were further diluted 2-fold by addition to cells in T75-cm^2 flasks. HeLa-EnvJRFL and CEM NKR-CCR5 cells were incubated overnight in F18- and R18-containing culture medium, respectively. […] The centrifugation/wash step was repeated twice, after which the cells were counted and concentrations adjusted to 1.5×10^6 cells/ml. […] The plates were then read on a fluorescence plate reader (Victor^2, Perkin Elmer, Boston, Mass.) using the excitation/emission filter combinations shown in Table 6.
The “% RET” was calculated according to the following formula after subtraction of background (blank) readings: […]
The “% Inhibition” was calculated according to the following formula: […]
Fifty percent inhibition (IC50) values were determined by fitting the inhibition data with a non-linear, four-parameter, variable slope equation (GraphPad Prism, 4.02; GraphPad Software, San Diego, Calif.). […]

[7] = system: reporter virus pseudotyped with HIV-1JR-FL envelope; format: cell-based
Experimental: as §2, §1

[8] = in vivo; cited from earlier work
[9] = single administration of solution; cited from earlier work
HIV-1 = conditions: cited from earlier work
CCR5 [10] = target: T1, CCR5; test: RANTES-induced calcium mobilization in L1.2-CCR5 cells; format: cell-based; conditions: FIG. 4
Excerpt: Similar results were obtained for […] and MIP-1β.

HIV-1JR-CSF = test: hu-PBL-SCID mouse model of HIV-1 infection; format: in vivo, SCID mice; conditions: multiple doses after steady state viral levels
Experimental: SCID mice were reconstituted with normal human peripheral blood mononuclear cells and infected 2 weeks later with HIV-1JR-CSF. Multiple doses of PRO 140 were administered following attainment of steady state viral levels. Plasma viral loads pre- and post-injection are indicated.

CCR5 lymphocytes = format: in vivo, human
Experimental: At the indicated times post-treatment, blood was collected and analyzed for CCR5 lymphocyte levels. The group mean values and standard deviations are indicated.
Whole blood specimens were combined separately with the indicated phycoerythrin-labeled anti-CCR5 antibodies or with appropriate isotype-control antibodies. Erythocytes were lysed and leukocytes were stabilized using the ImmunoPrep Reagent System (Beckman Coulter), and the cells were analyzed on a TQ Prep™ flow cytometry workstation (Beckman Coulter). Data were expressed as the percent of CCR5 cells relative to all cells gated in the analysis.
For up to 60 days post-treatment, at the times indicated in FIG. 6, blood was collected and analyzed for CCR5 lymphocyte levels.

[11] = parameters: species or system human; conditions: in vivo
Experimental: At the indicated times post-treatment, serum was collected, cryopreserved, and analyzed for PRO 140 levels. Data for individual patients are indicated.
Sera were diluted as appropriate and combined with L1.2-CCR5 cells, which are mouse pre-B lymphoma cells engineered to stably express human CCR5. […] Following incubation with test samples, cells were washed and combined with a FITC-labeled sheep antibody against human IgG4 (The Binding Site Limited, Cat. #AF009). Cells were washed again and analyzed by flow cytometry.
Serum was collected post-treatment, cryopreserved, and analyzed for PRO 140 levels. Peak serum concentrations ranged to […] at 0.1 mg/kg and […] at 0.5 mg/kg.

[12] = labelled 1st inhibitor with 2nd inhibitor PRO 140, equimolar
[13] = labelled 1st inhibitor with 2nd inhibitor UK-427,857, equimolar
[14] = envelope JRFL, 2nd inhibitor PRO 140, equimolar, 1:10 PRO 140 to zidovudine or nevirapine

T1 sequence (P51681 whole entry): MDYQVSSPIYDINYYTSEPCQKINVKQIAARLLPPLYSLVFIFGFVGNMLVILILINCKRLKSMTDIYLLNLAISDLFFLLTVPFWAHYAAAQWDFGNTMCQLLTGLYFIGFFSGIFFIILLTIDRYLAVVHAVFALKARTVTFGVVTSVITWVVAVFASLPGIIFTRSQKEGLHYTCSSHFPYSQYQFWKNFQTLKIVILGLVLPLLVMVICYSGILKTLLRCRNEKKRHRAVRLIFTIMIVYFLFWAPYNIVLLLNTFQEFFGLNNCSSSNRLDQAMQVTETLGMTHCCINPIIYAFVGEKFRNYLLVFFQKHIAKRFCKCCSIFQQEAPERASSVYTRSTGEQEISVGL

Molecule: RANTES: CC-chemokine that serves as a natural ligand for CCR5
- CI50 [1, 12]: 0.59 ± 0.08
- CI90 [1, 12]: 0.43 ± 0.05
- CI50 [1, 13]: 0.48 ± 0.03
- CI90 [1, 13]: 0.18 ± 0.01

Molecule: COC[C@@H](c1ccc(C(F)(F)F)cc1)N1CCN(C2(C)CCN(C(=O)c3c(C)ncnc3C)CC2)C[C@@H]1C [SCH-D, 1-[(4,6-dimethyl-5pyrimidinyl)carbonyl]-4 [4-[2-methoxy-1(R)-4-(trifluoromethyl)phenyl]ethyl-3 (S)-methyl-1-piperazinyl]-4-methylpiperidine]
- Displacement of pre-bound 3H-UK-427,857 by unlabeled compound (CCR5 [2]): wasn't displaced
- CI50 [3]: 0.60 ± 0.17
- CI90 [3]: 0.28 ± 0.11
- Sensitivity of SCH-D-resistant HIV-1 variant [4]: resistant
- Effect on percent of cells gated for positive binding of PRO 140-PE (CCR5 [5]; FIG. 16B): little impact
- Inhibition of PRO 140-PE binding (CCR5 [5]): modest levels of inhibition
- Mean DR (Drug 2) [6]: 4.31 ± 1.82
- CI50 [7, 14]: 0.47 ± 0.15
- CI90 [7, 14]: 0.18 ± 0.04

Molecule: Cc1ccc(-c2ccc3c(c2)C=C(C(=O)Nc2ccc(C[N+](C)(C)C4CCOCC4)cc2)CCC3)cc1.[Cl-] [TAK-779]
- Oral bioavailability [8]: poor oral bioavailability
- Inhibition of HIV-1 pseudovirus entry ([7]; compound alone, data not shown): Neither TAK-779 nor RANTES mediated consistent, high-level inhibition

Molecule: CCO/N=C(\c1ccc(Br)cc1)C1CCN(C2(C)CCN(C(=O)c3c(C)cc[n+]([O-])c3C)CC2)CC1 [SCH-C]
- Sensitivity of AD101-resistant HIV-1 variant [4]: resistant

Molecule: CCCCOCCOc1ccc(-c2ccc3c(c2)/C=C(/C(=O)Nc2ccc(OCc4cncn4CCC)cc2)CCCN3CC(C)C)cc1 [TAK-652]
- Oral bioavailability [8]: orally bioavailable
- Safety and tolerability [9]: safe and well tolerated
- Anti-HIV-1 activity in vitro (HIV-1): nanomolar range

B1: PRO 140: humanized IgG4,κ anti-CCR5 monoclonal antibody, humanized version of murine mAb PA14 (antibody, chains of the INN, looked up, V domains shown)
VH: EVQLVESGGGLVKPGGSLRLSCAASGYTFSNYWIGWVRQAPGKGLEWIGDIYPGGNYIRNNEKFKDKTTLSADTSKNTAYLQMNSLKTEDTAVYYCGSSFGSNYVFAWFTYWGQGTLVTVSS
VL: DIVMTQSPLSLPVTPGEPASISCRSSQRLLSSYGHTYLHWYLQKPGQSPQLLIYEVSNRFSGVPDRFSGSGSGTDFTLKISRVEAEDVGVYYCSQSTHVPLTFGQGTKVEIK
- Effect on RANTES-induced calcium mobilization versus HIV-1JR-FL replication in PBMC (CCR5 [10]): blocks HIV-1 but not chemokine signaling
- Displacement of pre-bound 3H-UK-427,857 by unlabeled compound (CCR5 [2]; cells pre-incubated with 2 nM 3H-UK-427,857, unlabeled compound 30 min): wasn't displaced
- Control of viral replication (plasma viral load) (HIV-1JR-CSF): prolonged control of viral replication
- Overall number of CCR5 lymphocytes (CTC5 binding) (CCR5 lymphocytes; in vivo, iv, 2 mg/kg): no decrease
- Binding of antibody 2D7 (CCR5 lymphocytes not coated with PRO 140) (CCR5 lymphocytes; single 2 mg/kg intravenous infusion): significantly decreased
- Dose dependence of serum concentrations [11]: increased proportionally with dose level
- Inhibition of PRO 140-PE binding (CCR5 [5]): Complete inhibition
